Read-outs that look alike come from different tables or passages of the source.
Assays:
mock-infected H9 cells = test: Cytotoxicity in mock-infected (uninfected) H9 cells; assay type: cell-based
Method: (§1) The biological evaluation of HIV-1 inhibition was carried out according to established protocols, (Kashiwada, Y., et al., J. Med. Chem. 39:1016-1017 (1996); Hashimoto, F., et al., Bioorg. & Med. Chem. 5:2133-2143 (1997)). The T cell line, H9, was maintained in continuous culture log-phase growth in complete medium (RPMI 1640 with 10% fetal calf serum supplemented with L-glutamine at 5% CO2 and 37° C.). Test samples were first dissolved in dimethyl sulfoxide at a concentration of 10 mg/ml to generate master stocks with dilutions made into tissue culture media to generate working stocks. The following drug concentrations were used routinely for screening: 50, 5, and 0.5 μg/mL. For agents found to be active, additional dilutions were prepared for subsequent testing so that an accurate EC50 value (defined below) could be determined. As the test samples were being prepared, an aliquot of the H9 cell line was infected with HIV-1 (IIIB isolate) while a second aliquot was mock-infected with complete medium. […] An amount of virus equal to approximately 6.25×10^4 TCID50 was added to the first aliquot of 3.5×10^6H9 cells. The second aliquot received tissue culture medium only, and these mock-infected cells were used for toxicity determinations (IC50 defined below). After a 4 h incubation at 37° C. and 5% CO2, both cell populations were washed three times with fresh medium and then added to the appropriate wells of a 96-well plate containing various concentrations of the test drug or tissue culture medium (positive infected control/negative drug control). In addition, AZT was assayed during each experiment as a positive drug control. The plates were incubated at 37° C. and 5% CO2 for 5 days. Cell-free culture supernatants were collected on Day 5 for use in a p24 antigen-capture ELISA assay to determine virus replication. p24 is the core protein of HIV and therefore is an indirect measure of the amount of virus present in the culture supernatants. Toxicity was determined using a viable dye method (XTT) on mock-infected H9 cells that were treated with test sample, AZT or no drug. If a test sample suppressed viral replication and was toxic to less than 50% of the cells, its effects were reported in the following terms: IC50, the concentration of test sample which was toxic to 50% of the mock-infected H9 cells; EC50, the concentration of the test sample which was able to suppress HIV replication by 50%; and Therapeutic Index (TI), the ratio of IC50 to EC50.
(§2) Compounds of the present invention were assayed for anti-HIV activity according to the following assay procedures. The T cell line, H9, and the promonocytic cell line, U937, were maintained separately in continuous culture with complete medium (RPMI 1640 with 10% fetal calf serum) at 5% CO2 and 37° C. The cell lines were used in experiments only when in the logarithmic phase of growth, whereas uninfected peripheral blood mononuclear cells (PBMCs) were first stimulated with PHA (1 μg/mL) for three days. All cell targets were incubated with HIV-1 (IIIB isolate, 1×10^6 TCID50/mL) for one hour at 37° C. and 5% CO2. The cell lines and PBMCs were washed thoroughly to remove unadsorbed virions and resuspended at 4×10^5 cells/mL in complete medium or complete medium with 10% v/v interleukin 2 (IL-2), respectively. […] aliquots were placed into wells of 96-well tissue culture plates containing an equal volume of test compounds (diluted in the appropriate culture medium). The toxicity of each compound was assessed by determining the viability of compound-exposed uninfected cells after five days at 37° C. and 5% CO2. A p24 antigen ELISA assay was used to determine the level of virus released in the medium of the HIV-infected cultures. The p24 antigen assay used a HIV-1 anti-p24 specific monoclonal antibody as the capture antibody coated onto 96-well plates. […]

HIV-1 (IIIB isolate) = test: Anti-HIV activity in H9 lymphocytes (p24 antigen ELISA); assay type: cell-based; conditions: H-9 lymphocytes; for Anti-HIV Activity EC50: HIV-1 IIIB, p24 ELISA, day 5, average of at least two experiments; for Therapeutic Index (TI = IC50/EC50): ratio of IC50 to EC50; for anti-viral activity (in words): summary of Table 1
Method: as §1, §2

| SMILES | Cytotoxicity IC50 (mock-infected H9 cells) [µg/mL] | Anti-HIV Activity EC50 (HIV-1 (IIIB isolate)) [µg/mL] | Therapeutic Index (TI = IC50/EC50) (HIV-1 (IIIB isolate)) | anti-viral activity (in words) (HIV-1 (IIIB isolate)) | Cytotoxicity IC50 (mock-infected H9 cells; uninfected H9 cells, five days, average of at least two experiments) [µg/mL] |
| --- | --- | --- | --- | --- | --- |
| CC1(C)Oc2ccc3cc(CBr)c(=O)oc3c2[C@@H](OC(=O)[C@@]23CC[C@@](C)(C(=O)O2)C3(C)C)[C@H]1OC(=O)[C@@]12CC[C@@](C)(C(=O)O1)C2(C)C (relative stereo) [Compound 1, (3′R,4′R)-3′,4′-Di-O-(S)-(−)-camphanoyl-3-bromomethyl-(+)-cis-khellactone] | 3.38 | 0.0854 | 40 | – | – |
| CC1(C)Oc2ccc3cc(C(Br)Br)c(=O)oc3c2[C@@H](OC(=O)[C@@]23CCC(C)(C(=O)O2)C3(C)C)[C@H]1OC(=O)[C@@]12CCC(C)(C(=O)O1)C2(C)C (relative stereo) [Compound 2, (3′R,4′R)-3′,4′-Di-O-(S)-(−)-camphanoyl-3-dibromomethyl-(+)-cis-khellactone] | 3.20 | 0.000119 | 26,890 | most potent | – |
| Cc1c(CBr)c(=O)oc2c3c(ccc12)OC(C)(C)[C@H](OC(=O)[C@@]12CC[C@@](C)(C(=O)O1)C2(C)C)[C@@H]3OC(=O)[C@@]12CC[C@@](C)(C(=O)O1)C2(C)C (relative stereo) [Compound 3, (3′R,4′R)-3′,4′-Di-O-(S)-(−)-camphanoyl-3-bromomethyl-4-methyl-(+)-cis-khellactone] | 19.4 | 0.000192 | 101,000 | most potent | – |
| CC1(C)Oc2c(CBr)cc3ccc(=O)oc3c2[C@@H](OC(=O)[C@@]23CCC(C)(C(=O)O2)C3(C)C)[C@H]1OC(=O)[C@@]12CCC(C)(C(=O)O1)C2(C)C (relative stereo) [Compound 4, (3′R,4′R)-3′,4′-Di-O-(S)-(−)-camphanoyl-6-bromomethyl-(+)-cis-khellactone] | 1.99 | 0.0176 | 113 | – | – |
| Cc1cc(=O)oc2c3c(c(C(Br)Br)cc12)OC(C)(C)[C@H](OC(=O)[C@@]12CCC(C)(C(=O)O1)C2(C)C)[C@@H]3OC(=O)[C@@]12CCC(C)(C(=O)O1)C2(C)C (relative stereo) [Compound 5, (3′R,4′R)-3′,4′-Di-O-(S)-(−)-camphanoyl-6-dibromomethyl-4-methyl-(+)-cis-khellactone] | 1.76 | 0.0215 | 81.8 | – | – |
| Cc1cc(=O)oc2c3c(c(CBr)cc12)OC(C)(C)[C@H](OC(=O)[C@@]12CC[C@@](C)(C(=O)O1)C2(C)C)[C@@H]3OC(=O)[C@@]12CC[C@@](C)(C(=O)O1)C2(C)C (relative stereo) [Compound 6, (3′R,4′R)-3′,4′-Di-O-(S)-(−)-camphanoyl-6-bromomethyl-4-methyl-(+)-cis-khellactone] | 25.00 | 0.025 | 1,000 | – | – |
| CC(=O)OCc1cc2ccc3c(c2oc1=O)[C@@H](OC(=O)[C@@]12CCC(C)(C(=O)O1)C2(C)C)[C@@H](OC(=O)[C@@]12CCC(C)(C(=O)O1)C2(C)C)C(C)(C)O3 (relative stereo) [Compound 7, (3′R,4′R)-3′,4′-Di-O-(S)-(−)-camphanoyl-3-acetoxymethyl-(+)-cis-khellactone] | 3.34 | 0.00103 | 3,243 | most potent | – |
| CC(=O)OCc1c(C)c2ccc3c(c2oc1=O)[C@@H](OC(=O)[C@@]12CC[C@@](C)(C(=O)O1)C2(C)C)[C@@H](OC(=O)[C@@]12CC[C@@](C)(C(=O)O1)C2(C)C)C(C)(C)O3 (relative stereo) [Compound 8, (3′R,4′R)-3′,4′-Di-O-(S)-(−)-camphanoyl-3-acetoxymethyl-4-methyl-(+)-cis-khellactone] | 18.80 | 0.00012 | 157,000 | most potent | – |
| CC(=O)OCc1cc2c(C)cc(=O)oc2c2c1OC(C)(C)[C@H](OC(=O)[C@@]13CCC(C)(C(=O)O1)C3(C)C)[C@@H]2OC(=O)[C@@]12CCC(C)(C(=O)O1)C2(C)C (relative stereo) [Compound 9, (3′R,4′R)-3′,4′-Di-O-(S)-(−)-camphanoyl-6-acetoxymethyl-4-methyl-(+)-cis-khellactone] | 21.70 | 0.275 | 78.9 | – | – |
| CC1(C)Oc2ccc3cc(CO)c(=O)oc3c2[C@@H](OC(=O)[C@@]23CCC(C)(C(=O)O2)C3(C)C)[C@H]1OC(=O)[C@@]12CCC(C)(C(=O)O1)C2(C)C (relative stereo) [Compound 10, (3′R,4′R)-3′,4′-Di-O-(S)-(−)-camphanoyl-3-hydroxymethyl-(+)-cis-khellactone] | 35.35 | 0.000188 | 188,032 | most potent | – |
| Cc1cc(=O)oc2c3c(c(CO)cc12)OC(C)(C)[C@H](OC(=O)[C@@]12CCC(C)(C(=O)O1)C2(C)C)[C@@H]3OC(=O)[C@@]12CCC(C)(C(=O)O1)C2(C)C (relative stereo) [Compound 12, (3′R,4′R)-3′,4′-Di-O-(S)-(−)-camphanoyl-6-hydroxymethyl-4-methyl-(+)-cis-khellactone] | 19.3 | 0.000625 | 30,900 | most potent | – |
| COP(=O)(OC)OCc1cc2c(C)cc(=O)oc2c2c1OC(C)(C)[C@H](OC(=O)[C@@]13CCC(C)(C(=O)O1)C3(C)C)[C@@H]2OC(=O)[C@@]12CCC(C)(C(=O)O1)C2(C)C (relative stereo) [Compound 13, (3′R,4′R)-3′,4′-Di-O-(S)-(−)-camphanoyl-6-(dimethylphosphate)methyl-4-methyl-(+)-cis-khellactone] | – | 0.504 | 3.79 | – | 1.91 |
| CC1(C)Oc2ccc3cc(CN)c(=O)oc3c2[C@@H](OC(=O)[C@@]23CC[C@@](C)(C(=O)O2)C3(C)C)[C@H]1OC(=O)[C@@]12CC[C@@](C)(C(=O)O1)C2(C)C (relative stereo) [Compound 14, (3′R,4′R)-3′,4′-Di-O-(S)-(−)-camphanoyl-3-aminomethyl-(+)-cis-khellactone] | 32.81 | 0.39 | – | – | – |
| Cc1cc(=O)oc2c3c(c(CN)cc12)OC(C)(C)[C@H](OC(=O)[C@@]12CC[C@@](C)(C(=O)O1)C2(C)C)[C@@H]3OC(=O)[C@@]12CC[C@@](C)(C(=O)O1)C2(C)C (relative stereo) [Compound 15, (3′R,4′R)-3′,4′-di-O-(S)-(−)-camphanoyl-6-aminomethyl-4-methyl-(+)-cis-khellactone] | 24.1 | 0.001 | 24,100 | most potent | – |
| CCN(CC)Cc1cc2ccc3c(c2oc1=O)[C@@H](OC(=O)[C@@]12CC[C@@](C)(C(=O)O1)C2(C)C)[C@@H](OC(=O)[C@@]12CC[C@@](C)(C(=O)O1)C2(C)C)C(C)(C)O3 (relative stereo) [Compound 16, (3′R,4′R)-3′,4′-Di-O-(S)-(−)-camphanoyl-3-diethylaminomethyl-(+)-cis-khellactone] | 43.01 | 0.69 | 62 | – | – |

From patent US6768007B2, “Substituted 3′,4′-di-O-camphanoyl-(+)-cis-khellactone analogs, compositions thereof, and methods for using thereof” (Panacos Pharmaceuticals, Inc., priority 2001, dated 2004)
